In patent US9624182B2, “Compounds as lysophosphatidic acid receptor antagonists” (Amira Pharmaceuticals, Inc., priority 2009, dated 2017) one finds IC50 data, which are given here for 30 compounds.

For this assay, the target named is T1, human LPA1 (Homo sapiens, UniProt Q92633).
T1 construct: the full-length cDNA for human LPA1 was obtained by PCR of the reverse transcription reaction; expressed in transfected cells
T1 sequence (Q92633 whole entry): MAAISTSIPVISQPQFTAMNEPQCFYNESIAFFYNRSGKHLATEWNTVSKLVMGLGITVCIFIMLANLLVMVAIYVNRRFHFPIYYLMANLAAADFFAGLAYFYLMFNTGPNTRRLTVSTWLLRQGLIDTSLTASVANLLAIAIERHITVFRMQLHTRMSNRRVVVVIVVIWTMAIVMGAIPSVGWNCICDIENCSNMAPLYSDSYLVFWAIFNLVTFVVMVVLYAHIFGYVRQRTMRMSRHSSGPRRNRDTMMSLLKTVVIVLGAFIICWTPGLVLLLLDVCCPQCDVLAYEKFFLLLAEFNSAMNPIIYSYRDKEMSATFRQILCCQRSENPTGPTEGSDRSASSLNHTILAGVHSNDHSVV
The assay is described as follows: LPA1 calcium flux assay. Format: cell-based. The following applies: CHO cells expressing human LPA1, stimulated with 10 nM LPA; read-out: HLPA1 Ca Flux IC50. In outline: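 Antagonism measured as block of 10 nM LPA-evoked calcium rise in stable human LPA1-CHO cells. After overnight serum-free culture and 1 h dye loading at 37 °C (buffer with 0.3% fatty-acid-free albumin), compound was added for 30 min at room temperature. Titration curves gave IC50.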
As to `COc1cccc(Nc2c(C)noc2-c2ccc(-c3ccc(C4(C(=O)O)CC4)cc3)cc2)n1` [Compound 1-304, 1-{4′-[4-(6-Methoxy-pyridin-2-ylamino)-3-methyl-isoxazol-5-yl]-biphenyl-4-yl}-cyclopropanecarboxylic acid], the IC50 is below 0.3 µM.
For the compound `Cc1noc(-c2ccc(-c3ccc(CC(=O)O)cc3)cc2)c1NC(C)CCc1cccc(Cl)c1` (stereo not drawn) [Compound 1-182, (4′-{4-[3-(3-Chloro-phenyl)-1-methyl-propylamino]-3-methyl-isoxazol-5-yl}-biphenyl-4-yl)-acetic acid], the IC50 was below 0.3 µM.
Turning to `Cc1noc(-c2ccc(-c3ccc(C4(C(=O)O)CC4)cc3)cc2)c1C(=O)C[S+]([O-])Cc1ccccc1` (stereo not drawn) [Compound 1-202, 1-{4′-[3-Methyl-4-(2-phenylmethanesulfinyl-acetyl)-isoxazol-5-yl]-biphenyl-4-yl}-cyclopropanecarboxylic acid], the IC50 was in the range of 1 to 50 µM.
In the case of `Cc1noc(-c2ccc(-c3ccc(C4(C(=O)O)CC4)cc3)cc2)c1CCC(=O)NCC1CC1` [Compound 1-40, 1-(4′-{4-[2-(Cyclopropylmethyl-carbamoyl)-ethyl]-3-methyl-isoxazol-5-yl}-biphenyl-4-yl)-cyclopropanecarboxylic acid], the IC50 was 1 to 50 µM.
For `Cc1noc(-c2ccc(-c3ccc(C4(C(=O)O)CC4)cc3)cc2)c1NC(=O)NCc1ccccc1` [Compound 1-6, 1-{4′-[4-(3-Benzyl-ureido)-3-methyl-isoxazol-5-yl]-biphenyl-4-yl}-cyclopropanecarboxylic acid], the IC50 is below 0.3 µM.
Turning to `Cc1noc(-c2ccc(-c3ccc(CC(=O)O)cc3)cc2)c1C(O)CCCc1ccccc1` (single isomer, unassigned) [Compound 1-174, {4′-[4-(1-Hydroxy-4-phenyl-butyl)-3-methyl-isoxazol-5-yl]-biphenyl-4-yl}-acetic acid], the IC50 is below 0.3 µM.
Then `Cc1noc(-c2ccc(-c3ccc(CCC(=O)O)cc3)cc2)c1[C@H](O)CSCc1cccc(C(F)(F)F)c1` [Compound 1-274, 3-(4′-{4-[(S)-1-Hydroxy-2-(3-trifluoromethyl-benzylsulfanyl)-ethyl]-3-methyl-isoxazol-5-yl}-biphenyl-4-yl)-propionic acid], with below 0.3 µM; and `CC(=O)N(Cc1ccccc1)CC(O)Cc1c(C)noc1-c1ccc(-c2ccc(C3(C(=O)O)CC3)cc2)cc1` (stereo not drawn) [Compound 1-138, 1-(4′-{4-[3-(Acetyl-benzyl-amino)-2-hydroxy-propyl]-3-methyl-isoxazol-5-yl}-biphenyl-4-yl)-cyclopropanecarboxylic acid], with 1 to 50 µM.
Regarding `Cc1noc(-c2ccc(-c3ccc(C4(CC(=O)O)CC4)cc3)cc2)c1/C=C/CCc1ccccc1` [Compound 1-102, (1-{4′-[3-Methyl-4-((E)-4-phenyl-but-1-enyl)-isoxazol-5-yl]-biphenyl-4-yl}-cyclopropyl)-acetic acid], the IC50 is 0.3 to 1 µM.
As to `Cc1noc(-c2ccc(-c3ccc(C4(C(=O)O)CC4)cc3)cc2)c1C(O)C(=O)NCCc1ccccc1` (stereo not drawn) [Compound 1-249, 1-{4′-[4-(Hydroxy-phenethylcarbamoyl-methyl)-3-methyl-isoxazol-5-yl]-biphenyl-4-yl}-cyclopropanecarboxylic acid], the IC50 was below 0.3 µM.
Under `Cc1noc(-c2ccc(-c3cccc(C(=O)O)c3)cc2)c1NC(=O)CCc1ccccc1` [Compound 1-1, 4′-[3-Methyl-4-(3-phenyl-propionylamino)-isoxazol-5-yl]-biphenyl-3-carboxylic acid] stands 1 to 50 µM.
Consider `Cc1noc(-c2ccc(-c3ccc(C4(C(=O)O)CC4)cc3)cc2)c1NC(C)CSc1ccccc1` (stereo not drawn) [Compound 1-278, 1-{4′-[3-Methyl-4-(1-methyl-2-phenylsulfanyl-ethylamino)-isoxazol-5-yl]-biphenyl-4-yl}-cyclopropanecarboxylic acid], for which the IC50 is below 0.3 µM.
Then `Cc1noc(-c2ccc(-c3ccc(C4(C(=O)O)CC4)cc3)cc2)c1/C=C\CC(C)c1ccccc1` (stereo not drawn) [Compound 1-112, 1-{4′-[3-Methyl-4-((Z)-4-phenyl-pent-1-enyl)-isoxazol-5-yl]-biphenyl-4-yl}-cyclopropanecarboxylic acid], with below 0.3 µM; and `CC(C)=CCCC(C)Nc1c(C)noc1-c1ccc(-c2ccc(C3(C(=O)O)CC3)cc2)cc1` (stereo not drawn) [Compound 1-205, 1-{4′-[4-(1,5-Dimethyl-hex-4-enylamino)-3-methyl-isoxazol-5-yl]-biphenyl-4-yl}-cyclopropanecarboxylic acid], with below 0.3 µM; and `Cc1noc(-c2ccc(-c3ccc(C4(C(=O)O)CC4)cc3)cc2)c1COC(=O)NC1CCCC1` [Compound 1-23, 1-[4′-(4-Cyclopentylcarbamoyloxymethyl-3-methyl-isoxazol-5-yl)-biphenyl-4-yl]-cyclopropanecarboxylic acid], with below 0.3 µM.
Then `Cc1noc(-c2ccc(-c3ccc(C4(C(=O)O)CC4)cc3)cc2)c1C(O)CCCc1cccnc1` (stereo not drawn) [Compound 1-260, 1-{4′-[4-(1-Hydroxy-4-pyridin-3-yl-butyl)-3-methyl-isoxazol-5-yl]-biphenyl-4-yl}-cyclopropanecarboxylic acid], with below 0.3 µM; and `Cc1noc(-c2ccc(-c3ccc(C4(C(=O)O)CC4)cc3)cc2)c1CS(=O)(=O)Cc1ccccc1` [Compound 1-53, 1-[4′-(3-Methyl-4-phenylmethanesulfonylmethyl-isoxazol-5-yl)-biphenyl-4-yl]-cyclopropanecarboxylic acid], with 1 to 50 µM; and `Cc1noc(-c2ccc(-c3ccc(C4(CC(=O)O)CC4)cc3)cc2)c1NC(C)CCc1cccc(Cl)c1` (stereo not drawn) [Compound 1-184, [1-(4′-{4-[3-(3-Chloro-phenyl)-1-methyl-propylamino]-3-methyl-isoxazol-5-yl}-biphenyl-4-yl)-cyclopropyl]-acetic acid], with below 0.3 µM.
Consider `Cc1noc(-c2ccc(-c3ccc(C(=O)CCC(=O)O)cc3)cc2)c1C(O)CCCc1ccccc1` (stereo not drawn) [Compound 1-245, 4-{4′-[4-(1-Hydroxy-4-phenyl-butyl)-3-methyl-isoxazol-5-yl]-biphenyl-4-yl}-4-oxo-butyric acid], for which the IC50 fell in the range of 1 to 50 µM.
For the compound `C=CCCC(C)Nc1c(C)noc1-c1ccc(-c2ccc(C3(CC(=O)O)CC3)cc2)cc1` (stereo not drawn) [Compound 1-226, (1-{4′-[3-Methyl-4-(1-methyl-pent-4-enylamino)-isoxazol-5-yl]-biphenyl-4-yl}-cyclopropyl)-acetic acid], the IC50 was 0.3 to 1 µM.
`Cc1noc(-c2ccc(-c3ccc(C4(C(=O)O)CC4)cc3)cc2)c1C(=O)CCc1cccc(C(F)(F)F)c1` [Compound 1-160, 1-(4′-{3-Methyl-4-[3-(3-trifluoromethyl-phenyl)-propionyl]-isoxazol-5-yl}-biphenyl-4-yl)-cyclopropanecarboxylic acid]: the IC50 lay in the range of 1 to 50 µM.
Turning to `Cc1noc(-c2ccc(-c3ccc(C4(C(=O)O)CC4)cc3)cc2)c1C(O)CCCc1ccncc1` (stereo not drawn) [Compound 1-261, 1-{4′-[4-(1-Hydroxy-4-pyridin-4-yl-butyl)-3-methyl-isoxazol-5-yl]-biphenyl-4-yl}-cyclopropanecarboxylic acid], the half-maximal inhibitory concentration (IC50) was below 0.3 µM.
Regarding `Cc1noc(-c2ccc(-c3ccc(C4(CC(=O)O)CC4)cc3)cc2)c1NC(C)CCc1ccc2c(c1)OCO2` (stereo not drawn) [Compound 1-233, (1-{4′-[4-(3-Benzo[1,3]dioxol-5-yl-1-methyl-propylamino)-3-methyl-isoxazol-5-yl]-biphenyl-4-yl}-cyclopropyl)-acetic acid], the IC50 was below 0.3 µM.
Then `CC(C)=CCCC(C)Nc1c(C)noc1-c1ccc(-c2ccc(C3(CC(=O)O)CC3)cc2)cc1` (stereo not drawn) [Compound 1-204, (1-{4′-[4-(1,5-Dimethyl-hex-4-enylamino)-3-methyl-isoxazol-5-yl]-biphenyl-4-yl}-cyclopropyl)-acetic acid], with below 0.3 µM; and `Cc1noc(-c2ccc(-c3ccc(C4(CC(=O)O)CC4)cc3)cc2)c1CSCCc1ccccc1` [Compound 1-125, {1-[4′-(3-Methyl-4-phenethylsulfanylmethyl-isoxazol-5-yl)-biphenyl-4-yl]-cyclopropyl}-acetic acid], with below 0.3 µM; and `Cc1noc(-c2ccc(-c3ccc(C4(CC(=O)O)CC4)cc3)cc2)c1NC(C)CCc1cccc(C(F)(F)F)c1` (stereo not drawn) [Compound 1-183, [1-(4′-{3-Methyl-4-[1-methyl-3-(3-trifluoromethyl-phenyl)-propylamino]-isoxazol-5-yl}-biphenyl-4-yl)-cyclopropyl]-acetic acid], with below 0.3 µM.
As for `Cc1noc(-c2ccc(-c3ccc(C4(C(=O)O)CC4)cc3)cc2)c1C(O)/C=C/c1ccccc1` (stereo not drawn) [Compound 1-158, 1-{4′-[4-((E)-1-Hydroxy-3-phenyl-allyl)-3-methyl-isoxazol-5-yl]-biphenyl-4-yl}-cyclopropanecarboxylic acid], the IC50 is below 0.3 µM.
Regarding `Cc1ccc(S(=O)(=O)NC(=O)Nc2c(C)noc2-c2ccc(-c3ccc(C4(C(=O)NS(=O)(=O)c5ccc(C)cc5)CC4)cc3)cc2)cc1` [Compound 2-5, 4-Methyl-N-(1-{4′-[3-methyl-4-(3-p-tolunesulfonyl-ureido)-isoxazol-5-yl]-biphenyl-4-yl}-cyclopropanecarbonyl)-benzenesulfonamide], the IC50 is above 50 µM.
Then `Cc1noc(-c2ccc(-c3ccc(C4(C(=O)O)CC4)cc3)cc2)c1CNS(=O)(=O)Cc1ccccc1Cl` [Compound 1-61, 1-(4′-{4-[(2-Chloro-phenylmethanesulfonylamino)-methyl]-3-methyl-isoxazol-5-yl}-biphenyl-4-yl)-cyclopropanecarboxylic acid], with 1 to 50 µM; and `Cc1noc(-c2ccc(-c3ccccc3CC(=O)O)cc2)c1NC(C)CCc1ccc2c(c1)OCO2` (stereo not drawn) [Compound 1-232, {4′-[4-(3-Benzo[1,3]dioxol-5-yl-1-methyl-propylamino)-3-methyl-isoxazol-5-yl]-biphenyl-2-yl}-acetic acid], with above 50 µM.
